According to the supplement of paper PMC10307832:

Columns and labels:
Test in all cases: relative viability (nuclei count vs DMSO), 5 days (fraction); higher = more cells survive
[1] = compound: CCn1c(-c2nonc2N)nc2cnc(Oc3cccc(NC(=O)c4ccc(OCCN5CCOCC5)cc4)c3)cc21 + CC(=O)Nc1cccc(-n2c(=O)n(C3CC3)c(=O)c3c(Nc4ccc(I)cc4F)n(C)c(=O)c(C)c32)c1 [Trametinib] (partner 0.02 µM)
Summary of the method: (§1)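 Each reported value is a median over duplicate plates. It expresses relative viability: treated-well nuclei count divided by vehicle-well nuclei count. Lung cancer cell lines in 1536-well plates were dosed by pin tool a day after seeding, alone with one drug or with a fixed anchor-drug dose plus five library-drug doses (not always all listed) in √10 steps, and nuclei were counted after 5 days.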

[2] = compound: CCC1=CN=CN=C1N2CCN(CC2)CC3=NC4=C(N3)C=C(C=C4)C(F)(F)F + Cc1nc(NC(=O)N2CCC[C@H]2C(N)=O)sc1-c1ccnc(C(C)(C)C(F)(F)F)c1 [Alpelisib] (partner 2 µM)
Summary of the method: as §1

[3] = compound: CCn1c(-c2nonc2N)nc2cnc(Oc3cccc(NC(=O)c4ccc(OCCN5CCOCC5)cc4)c3)cc21 + CS(=O)(=O)CCNCc1ccc(-c2ccc3ncnc(Nc4ccc(OCc5cccc(F)c5)c(Cl)c4)c3c2)o1 [Lapatinib] (partner 2 µM)
Summary of the method: as §1

[4] = compound: CCC1=CN=CN=C1N2CCN(CC2)CC3=NC4=C(N3)C=C(C=C4)C(F)(F)F + O=C(c1cc(Cc2n[nH]c(=O)c3ccccc23)ccc1F)N1CCN(C(=O)C2CC2)CC1 [Olaparib] (partner 8 µM)
Summary of the method: as §1

Cell Line	relative viability ([1]; first compound 0.04 µM)	relative viability ([1]; first compound 0.1265 µM)	relative viability ([1]; first compound 0.4 µM)	relative viability ([1]; first compound 1.265 µM)	relative viability ([1]; first compound 4 µM)	relative viability ([2]; first compound 0.04 µM)	relative viability ([2]; first compound 0.1265 µM)	relative viability ([2]; first compound 0.4 µM)	relative viability ([2]; first compound 1.265 µM)	relative viability ([2]; first compound 4 µM)	relative viability ([3]; first compound 0.04 µM)	relative viability ([3]; first compound 0.1265 µM)	relative viability ([3]; first compound 0.4 µM)	relative viability ([3]; first compound 1.265 µM)	relative viability ([3]; first compound 4 µM)	relative viability ([4]; first compound 0.04 µM)	relative viability ([4]; first compound 0.1265 µM)	relative viability ([4]; first compound 0.4 µM)	relative viability ([4]; first compound 1.265 µM)	relative viability ([4]; first compound 4 µM)
NCI-H1666	0.95	1.09	0.851	0.582	0.528	0.877	0.913	0.903	0.851	0.95	0.792	0.777	0.592	0.498	0.329	0.743	0.729	0.772	0.727	0.71
NCI-H1734	0.676	0.729	0.69	0.603	0.467	0.686	0.754	0.795		0.676	1.03	0.93	0.6	0.38	0.403	0.63	0.609	0.587	0.584	0.557
NCI-H1755	0.832	0.772	0.71	0.749	0.734	0.881	0.913	0.923	0.862	0.895	1.11	0.928	0.713	0.641	0.6	0.915	0.903	0.856	0.82	0.75
NCI-H1792	0.425	0.47	0.401	0.354	0.302	0.696	0.685	0.641	0.503	0.65	1	0.869		0.567	0.793	0.895	0.406	0.369		0.399
NCI-H1793	0.356	0.476	0.425	0.401	0.327	0.618	0.553	0.557		0.637	0.555	0.569	0.582	0.414	0.418	0.736	0.754	0.697	0.564	0.784
NCI-H1915	0.267	0.31	0.309	0.227	0.221	1.1	1.03	1.06	0.957	1.03	1.11	0.949	0.956	0.611	0.387	0.27	0.248	0.252	0.268	0.249
NCI-H1944	0.409	0.365	0.441	0.467	0.359	0.993	0.827	0.778		0.802	0.822	0.699		0.691	0.553	0.622	0.395	0.378	0.344	0.361
NCI-H1975	0.261	0.256	0.219	0.154	0.176	0.641	0.633	0.605	0.61	0.527	0.778	0.729	0.477	0.435	0.331	0.9	0.729	0.735	0.718	0.667
NCI-H1993	0.441	0.427	0.464	0.439	0.509	0.593	0.623	0.743	0.77	0.727	0.797	0.798		0.754	0.734	0.95	1.03	1.09	0.895	0.974
